The values that follow come from EP0457318B1, “Alpha-Oxopyrrolo[2,3-b]indole acetic acids, esters, amides and related analogs, a process for their preparation and their use as medicaments” (HOECHST-ROUSSEL PHARMACEUTICALS INCORPORATED, priority 1990, dated 1991).

Read-outs that look alike come from different tables or passages of the source.

In one test the target is T1, Brain AChE (Rattus norvegicus, UniProt P37136).
T1 construct: corpora striata dissected free, weighed and homogenized in 19 volumes; from tissue; host or cells: rat corpora striata homogenate (male Wistar rats)
Description: In vitro inhibition of acetylcholinesterase activity in rat striatum (modified Ellman method). The class given is biochemical. The source says:
Cholinesterases are found throughout the body, both in the brain and in serum. However, only brain acetylcholinesterase (AChE) distribution is correlated with central cholinergic innervation. […] We have determined in vitro inhibition of acetylcholinesterase activity in rat striatum according to the method described below.
In Vitro Inhibition of Acetylcholinesterase Activity in Rat Striatum
The method described below was used in this invention for assaying anticholinesterase activity. This is a modification of the method of Ellman et al., Biochem. Pharmacol. 7, 88 (1961).
• 1. 0.05 M Phosphate buffer, pH 7.2 • (a) 6.85 g NaH2PO4·H2O/100 ml distilled H2O • (b) 13.40 g Na2HPO4·7H2O/100 ml distilled H2O • (c) add (a) to (b) until pH reaches 7.2 • (d) Dilute 1:10 • 2. Substrate in buffer • (a) 198 mg acetylthiocholine chloride (10 mM) • (b) q.s. to 100 ml with 0.05 M NaPO4, pH 7.2 (reagent 1) • 3. DTNB in buffer • (a) 19.8 mg 5,5-dithiobisnitrobenzoic acid (DTNB) (0.5 mM) • (b) q.s. to 100 ml with 0.05M NaPO4, pH 7.2 (reagent 1) • 4. A 2mM stock solution of the test drug is made up in a suitable solvent and q.s. to volume with 0.5 mM DTNB (reagent 3). Drugs are serially diluted (1:10) such that the final concentration (in cuvette) is 10^-4M and screened for activity. If active, IC50 values are determined from the inhibitory activity of subsequent concentrations.
Male Wistar rats are decapitated, brains rapidly removed, corpora striata dissected free, weighed and homogenized in 19 volumes (approximately 7 mg protein/ml) of 0.05 M phosphate buffer, pH 7.2 using a Potter-Elvehjem homogenizer. A 25 microliter aliquot of the homogenate is added to 1 ml of vehicle or various concentrations of the test drug and preincubated for 10 minutes at 37°C.
Enzyme activity is measured with the Beckman DU-50 spectrophotometer. This method can be used for IC50 determinations and for measuring kinetic constants.
Kinetics Soft-Pac Module #598273 (10) Program #6 Kindata: Source - Vis Wavelength - 412 nm Sipper - none Cuvettes - 2 ml cuvettes using auto 6-sampler Blank - 1 for each substrate concentration Interval time - 15 seconds (15 or 30 seconds for kinetics) Total time - 5 minutes (5 or 10 minutes for kinetics) Plot - yes Span - autoscale Slope - increasing Results - yes (gives slope) Factor - 1 […]
Blank values are determined for each run to control non enzymatic hydrolysis of substrate and these values are automatically substracted by the kindata program available on kinetics soft-pac module. This program also calculates the rate of absorbance change for each cuvette. […]
IC50 values are calculated from log-probit analysis.
Background: DTNB colorimetry detects thiols as they appear.

For test [1], the system named is Scopolamine Induced Memory Deficit. Nature of the test: Dark Avoidance Assay (reversal of scopolamine induced memory deficit). Type of test: in vivo. The settings on record: mice, s.c., retest after 24 hours. On the procedure:
In this assay mice are tested for their ability to remember an unpleasant stimulus for a period of 24 hours. A mouse is placed in a chamber that contains a dark compartment; a strong incandescent light drives it to the dark compartment, where an electric shock is administered through metal plates on the floor. The animal is removed from the testing apparatus and tested again, 24 hours later, for the ability to remember the electric shock.
If scopolamine, an anticholinergic that is known to cause memory impairment, is administered before an animal's initial exposure to the test chamber, the animal re-enters the dark compartment shortly after being placed in the test chamber 24 hours later. This effect of scopolamine is blocked by an active test compound, resulting in a greater interval before re-entry into the dark compartment.
The results for an active compound are expressed as the percent of a group of animals in which the effect of scopolamine is blocked, as manifested by an increased interval between being placed in the test chamber and re-entering the dark compartment.

[2] abbreviates: rat striatum homogenate, preincubated 10 minutes at 37°C, 5 mM acetylthiocholine, pH 7.2, read-out: Inhibitory Concentration (IC50) Brain AChE.

T1 sequence (P37136 32-614): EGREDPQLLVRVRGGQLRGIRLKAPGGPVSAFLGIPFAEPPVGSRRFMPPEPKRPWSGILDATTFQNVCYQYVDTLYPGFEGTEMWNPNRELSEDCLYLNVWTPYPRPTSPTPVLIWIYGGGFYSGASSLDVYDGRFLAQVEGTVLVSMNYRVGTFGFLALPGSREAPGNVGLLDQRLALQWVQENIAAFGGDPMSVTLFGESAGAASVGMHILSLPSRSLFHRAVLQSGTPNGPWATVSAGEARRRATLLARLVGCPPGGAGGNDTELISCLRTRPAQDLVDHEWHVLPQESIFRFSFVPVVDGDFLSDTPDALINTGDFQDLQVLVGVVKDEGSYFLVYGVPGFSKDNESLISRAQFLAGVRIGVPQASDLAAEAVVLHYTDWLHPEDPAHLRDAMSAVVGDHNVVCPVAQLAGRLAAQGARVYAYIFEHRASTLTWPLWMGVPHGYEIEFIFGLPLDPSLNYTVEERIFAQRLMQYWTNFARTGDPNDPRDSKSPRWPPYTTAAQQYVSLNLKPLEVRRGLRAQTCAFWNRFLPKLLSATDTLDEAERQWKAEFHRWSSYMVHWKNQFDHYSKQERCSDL

Consider `CCCCCOC(=O)C(=O)c1ccc2c(c1)C1(C)CCN(C)C1N2C` (stereo not drawn) [1,2,3,3a,8,8a-Hexahydro-α-oxo-1,3a,8-trimethyl-5-pyrrolo[2,3-b]indole acetic acid, n-pentyl ester], for which the IC50 on Brain AChE (setting [2]) worked out at 8 µM.
The same measure, in the same setting: next, `CN1CCC2(C)c3cc(C(=O)C(=O)OCc4ccccc4)ccc3N(C)C12` (stereo not drawn) [1,2,3,3a,8,8a-Hexahydro-α-oxo-1,3a,8-trimethyl-5-pyrrolo[2,3-b]indole acetic acid, phenylmethyl ester]: 4.4 µM.
Same read-out and setting: for `CCCCOC(=O)C(=O)c1ccc2c(c1)C1(C)CCN(C)C1N2C` (stereo not drawn) [1,2,3,3a,8,8a-Hexahydro-α-oxo-1,3a,8-trimethyl-5-pyrrolo[2,3-b]indole acetic acid, n-butyl ester] the value was 5.7 µM.
As for `CN1CCC2(C)c3cc(C(=O)C(=O)OCCc4ccccc4)ccc3N(C)C12` (stereo not drawn) [1,2,3,3a,8,8a-Hexahydro-α-oxo-1,3a,8-trimethyl-5-pyrrolo[2,3-b]indole acetic acid, phenylethyl ester], on Brain AChE, the IC50 was 9.1 µM. Also, the “% of Animals with Scopolamine Induced Memory Deficit Reversal” value (“% of Animals” below) in test [1] (dose 0.1 mg/kg of body weight) came out at 29%; in test [1] (dose 0.3 mg/kg of body weight) it was 36%; in test [1] (dose 1.0 mg/kg of body weight), 20%.
On to `CC[C@@H]1C(=O)OC[C@@H]1Cc1cncn1C` [Pilocarpine, reference compound], for which the “% of Animals” value in test [1] (dose 5.0 mg/kg of body weight) is recorded as 13%.
On to `Nc1c2c(nc3ccccc13)CCCC2` [Tacrine, reference compound], for which the “% of Animals” value in test [1] (dose 0.63 mg/kg of body weight) came out at 13%.
